Source: patent US20210238225A1, “PEPTIDOMIMETIC INHIBITORS OF THE PEPTIDYL-PROLYL CIS/TRANS ISOMERASE (PIN1)” (DANA-FARBER CANCER INSTITUTE, INC., priority 2018, published 2021)
pKi: −log10 of the molar value. Entries after “also recorded” stand apart in the source; their conditions may differ. Where two headings read alike, the source gives them in different places. Non-standard residues stand in square brackets, D forms with d. Residues, ends and D or L forms follow the SMILES beside them. *: point of attachment. NMeF = CN[C@@H](Cc1ccccc1)C(=O)O; Cit = NC(=O)NCCC[C@H](N)C(=O)O; Pip = O=C(O)[C@@H]1CCCCN1; ClAc = O=C(CCl)*

Columns and labels:
PATU-8988T cells = test: Time-dependent antiproliferative activity (CellTiter-Glo); type: cell-based; settings: Day 0, 2, 4, 6 and 8
Protocol: PATU-8988T cells were plated at a density of 100 cells per well in 100 μL media in a 96-well white clear bottom plate (Corning cat #3903), with at least one plate per time point (Day 0, 2, 4, 6 and 8). Cells were treated the day after plating with 1 μL of DMSO or Compound 18 to give the indicated concentrations, and were then incubated at 37° C. 5% CO2. Every 48 hours, the media was aspirated and replaced with fresh media containing fresh compound or DMSO. When the indicated time points had been reached, cell viability was evaluated using the CellTiter-Glo Luminescent Cell Viability Assay (Promega cat #G7570) according to the manufacturer's standards, measuring luminescence using an Envision plate-reader. The Day 0 time point plates were read the day after plating, prior to compound treatment. N=3 biological replicates were used for each treatment condition.

Pin1 [1] = molecular target: T1, Pin1 (Homo sapiens, UniProt Q13526); test: Lysate target engagement (pull down with biotinylated probes; competition assay); type: binding; set-up: endogenous in cells; host or cells: MDA-MB-231
T1 sequence (Q13526 whole entry): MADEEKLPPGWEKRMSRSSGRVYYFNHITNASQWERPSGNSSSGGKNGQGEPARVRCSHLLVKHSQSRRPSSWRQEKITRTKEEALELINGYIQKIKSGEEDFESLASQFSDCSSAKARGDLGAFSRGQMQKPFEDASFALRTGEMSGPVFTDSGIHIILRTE
Method in brief: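 MDA-MB-231 (TNBC) lysates, 500 μg protein, incubated 1 h at 4 °C with compound, then streptavidin pull-down 2 h at 4 °C; western blot read-out. Competition format: lysate pre-incubated overnight at 4 °C with competitor, then 1 μM desthiobiotin probe for 1 h before pull-down.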

Pin1 (GST-Pin1) = Pin1 (GST-Pin1) (Homo sapiens, UniProt Q13526); test: Fluorescence polarization (FP) assay, binding to Pin1
Sequence of Pin1 (GST-Pin1) (Q13526 whole entry): as above

Pin1 [2] = molecular target: T1, Pin1; test: Cellular target engagement, live cell biotin competition assay in TNBC MDA-MB-231 cells; type: cell-based; set-up: endogenous in cells; host or cells: MDA-MB-231
Method in brief: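 Cells treated 5 h with compound, then lysed; lysates incubated with 1 μM biotin probe compound 1 h at 4° C and pulled down on streptavidin agarose 2 h at 4° C. Bound Pin1 versus input detected by western blot.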

Pin1 Cys 113 = Pin1 Cys 113 (Homo sapiens, UniProt Q13526); test: Covalent labeling (intact MS); type: binding
Sequence of Pin1 Cys 113 (Q13526 whole entry): as above
Protocol: 5 μg of purified Pin1 protein in 50 μL of 20 mM HEPES pH 7.5 and 75 mM NaCl was incubated with 5 μM of respective Pin1 inhibitors for 0-3 hr. A Shimadzu XR HPLC was used to inject the entire sample onto a self-packed reverse-phase column (1/32 in outer diameter×500 μm inner diameter, 5 cm of POROS 50R2 resin). After desalting, protein was eluted with an HPLC gradient (0%-100% B in 4 min, A=0.2 M acetic acid in water, B=0.2 M acetic acid in acetonitrile, flow rate=10 μl/min) into a LTQ XL mass spectrometer (Thermo Fisher Scientific, San Jose, Calif., USA). LTQ XL MS spectra were acquired in centroid mode using the electron multipliers for ion detection. Mass spectra were deconvoluted using MagTran1.03b2 software (Zhang and Marshall, J. Am. Soc. Mass Spectrom. 9:225-233 (1998)).

[3] = system: phosphoRb (S780), phosphoRb (S801/811), β-Catenin, cJun, cMyc and phosphoH3 (S10); test: Downstream signaling, western blot in TNBC MDA-MB-231 cells; type: cell-based; settings: 10 μM, 1, 2, 4, 6 and 8 hours
Protocol: TNBC MDA-MB-231 cells were plated in 6-well plates at a density of 100,000 cells per well in 2 mL media. The day after plating, cells were treated with the indicated concentration of compound 18, and harvested at 1, 2, 4, 6, and 8 hours. To harvest, the cells were washed with PBS, and then lysed in RIPA Lysis Buffer (Thermo Scientific™, cat. #89900, with protease inhibitors (Roche). Lysates were clarified by centrifugation (14,000 rpm for 15 min at 4° C.), and protein concentrations were determined by BCA. The samples were normalized and prepared in 4× LDS+10% β-mercaptoethanol, and were then boiled at 95° C. for 5 minutes. Lysates were probed for specified proteins by western blotting using the Bolt system (Life Technologies™).

Compound: CCOC(=O)[C@H](CCCNC(N)=O)NC(=O)[C@H](Cc1c[nH]c2ccccc12)NC(=O)[C@@H]1CCCCN1C(=O)[C@H](Cc1ccccc1)N(C)C(=O)CCl [Compound 18, Ethyl (S)-2-((S)-2-((S)-1-(N-(2-chloroacetyl)-N-methyl-L-phenylalanyl)piperidine-2-carboxamido)-3-(1H-indol-3-yl)propanamido)-5-ureidopentanoate] (ClAc-[NMeF][Pip]W[Cit]-OEt)
- cell viability (FIG. 10) (PATU-8988T cells): dose-dependent and time-dependent defects in cell viability
- competition with compound 2c for Pin1 (FIG. 6B legend) (Pin1 [1]; HEK 293 cell lysate as printed in legend): competes with compound 2c for binding of Pin1
- lysate target engagement by competition with 1 μM compound 2c (FIG. 6B) (Pin1 [1]; TNBC-MDA-MB-231 cell lysate, pre-incubation overnight at 4° C.): potently engaged Pin1
- Lysate Target Engagement? (Pin1 [1]; TNBC-MDA-MB-231 lysate, biotin/dtb probes: pull down, others: competition, concentration under E5): Yes-
- Lysate Target Engagement? concentration stated for the engagement or pull down (Pin1 [1]; read with the E4 line of the same compound (complete, partial, probe pull down)): 500 µM
- pKi (Pin1 (GST-Pin1); read-out: Ki quoted in figure legend, assay not named): 7.70
- pKi (Pin1 (GST-Pin1); text and figure legend, read-out: Ki (fluorescence polarization, FIG. 1B)): 7.70
- concentration at which cellular Pin1 is fully engaged (FIG. 7B) (Pin1 [2]; TNBC MDA-MB-231 cells, 5 hours): ≤ 5 µM
- Cellular Target Engagement? (Pin1 [2]; TNBC MDA-MB-231 cells, 5 hours treatment, concentration under E7): Yes-Complete
- Cellular Target Engagement? concentration stated for complete engagement (Pin1 [2]; TNBC MDA-MB-231 cells, read with the E6 line): at 5 μM
- live cell competition with compound 2-32 (FIG. 7B legend) (Pin1 [2]; preincubation of live TNBC-MDA-MB-231 cells with increasing concentrations): outcompetes compound 2-32 for Pin1 binding
- covalent labeling of Pin1 (Pin1 Cys 113; 30-minute room temperature incubation at 1:1 Pin1:compound): 100%
- Covalent? (In tact MS), % labeling (Pin1 Cys 113; purified Pin1 with 5 μM inhibitor, 0-3 hr): Yes (100%
- downstream signaling changes (FIG. 9) [3]: a decrease in phosphoRb, β-Catenin, cJun, phosphoH3 (S10), and a temporary increase in c-Myc; also recorded: induced changes in downstream signaling
